Source: patent US6699908B2, “Methods for providing safe local anesthesia” (Euro-Celtique, S.A., priority 1996, dated 2004)
Where a name gives a salt, the structure may show the parent alone.

Legend:
[1] = tested on: Sprague-Dawley rats; test: Single dose toxicity (acute lethality) in rats, intramuscular; type: in vivo; conditions: for Mortality: I.M.
Procedure: Sprague-Dawley rats from Charles River, 6-8 weeks of age (body weight about […] for females and about 200-290 grams for males) were used for these studies.
Male and female rats were dosed intramuscularly in the hind limb with bupivacaine base (the form used in the microspheres), aqueous bupivacaine HCl, or LAB. The animals were examined for pharmacotoxic signs (including tremors and convulsions, and death).

[2] = tested on: sciatic nerve; test: Local injection proximal to the sciatic nerve, rat hot plate assay / dose-response; type: in vivo; conditions: rats, local injection of 25 mg/kg (8 mg/nerve)
[3] = in vivo; cited from earlier work

Q: Which Mortality ([1]; 50 mg/kg) does the source give for `CCCCN1CCCCC1C(=O)Nc1c(C)cccc1C` (stereo not drawn) [Bupivacaine free base, bupivacaine base] here?
A: 1/4

Q: And the Mortality ([1]; 100 mg/kg)?
A: 1/4

Q: And the Mortality ([1]; 150 mg/kg)?
A: 2/4

Q: With `CCCCN1CCCCC1C(=O)Nc1c(C)cccc1C` (stereo not drawn) [Bupivacaine HCl, bupivacaine HCl] as the compound, how does the Mortality ([1]; 5 mg/kg) read?
A: 0/4

Q: And the Mortality ([1]; 10 mg/kg)?
A: 0/4

Q: What about the Mortality ([1]; 25 mg/kg) of the same compound?
A: 0/4

Q: What about the Mortality ([1]; 50 mg/kg, HCl) of the same compound?
A: 4/4

Q: And the Mortality ([1]; 100 mg/kg, HCl)?
A: 4/4

Q: What about the lowest lethal dose ([1]; intramuscular dosing) of the same compound?
A: 10.6 mg/kg

Q: What about the “paralysis of the hindlimb (local motor anesthesia)” value ([1]; intramuscular dosing in the hind limb) of the same compound?
A: More transient paralysis

Q: And the “deaths of the animals” value [2]?
A: about 10%

Q: With `CCCCN1CCCCC1C(=O)Nc1c(C)cccc1C` (stereo not drawn) [bupivacaine] as the compound, how does the “plasma concentrations associated with toxicity” value [3] read?
A: > 1600 ng/mL
